In US10493057B2, “Acetogenin molecules having antiplatelet and/or antithrombic activities, and methods and compositions thereof” (INSTITUTO TECNOLOGICO Y DE ESTUDIOS SUPERIORES DE MONTERREY, priority 2015, dated 2019):
Like-named read-outs stand apart in the source and are kept apart here.

Assays:
[1] = test system: platelets (human platelet-rich plasma); assay: Platelet aggregation assay (turbidimetric, platelet-rich plasma) induced by collagen, ADP or arachidonic acid; assay type: cell-based
Description: Antiplatelet activity may be assessed using one or more in vitro (e.g., platelet aggregation) and/or in vivo (e.g., blood clotting time) assays. Antiplatelet activity may be assessed, for example, using a light transmittance aggregometry test based on the stimulation of platelet-platelet aggregation in platelet-rich plasma after stimulation with various agonists (e.g., ADP, α Arachidonic acid, collagen etc). This test has been the most widely used technique to monitor the effects of antiplatelet agents. Agonists and their concentration may be used to produce full aggregation. Under this condition, acetogenins may inhibit aggregation induced by any agonist; their half maximal inhibitory concentration (IC50) value may vary by the agonist used. Percent aggregation inhibition values may be calculated using the following equation: % Inhibition=(Maximal aggregation vehicle control−Maximal aggregation acetogenins)/Maximal aggregation vehicle control×100%. Under a dose-dependent antiplatelet activity, IC50 may represent the concentration of acetogenins required for 50% inhibition of stimulation of platelet aggregation. […]
To confirm the contribution of the isolated acetogenin compounds to antiplatelet activity, their individual activity was evaluated at different concentrations (0.15-15 mM). Aggregation was induced by different agonists that included collagen (5 μg mL−1), ADP (20 μM) and arachidonic acid (500 μM) in an approximation to explore the potential interference of acetogenins with the binding of a particular agonist to its cell surface receptor.
The platelet aggregation (induced by ADP, collagen and arachidonic acid) inhibitory activity of the purified molecules was evaluated was conducted in accordance with the Helsinki Declaration using human blood donated to the blood bank of Instituto Nacional de Cardiología Ignacio Chávez. Blood samples were taken from healthy volunteers who had not taken any medications for at least 2 weeks, or ingested any alcohol for at least 24 h prior to sample collection. Blood was collected by venipuncture into Vacutainer (BD Diagnostics, Plymouth, UK) tubes containing 3.8% sodium citrate as an anticoagulant (at a 9:1 ratio, v/v). Platelet-rich plasma (PRP) and platelet-poor plasma (PPP) were obtained as earlier reported by A. De la Peña, G. Baños, R. Izaguirre, J. J. Mandoki and J. M. Fernández, Comparative effect of synthetic aminoestrogens with estradiol on platelet aggregation, Steroids, 1993, 58(9), 407-409. The assays were carried out within 2 h after the blood had been drawn.
Evaluation of platelet aggregation was performed by turbidimetric measurements according to S. S. Falkenberg, I. Tarnow, A. Guzman, P. Molgaard and H. T. Simonsen, Mapuche herbal medicine inhibits blood platelet aggregation, Evid. Based Complement. Alternat. Med., 2012, 2012, 647620, with some modifications. PRP adjusted with PPP to a platelet count of 2.5×108 mL^−1 (215 μL) was pre-incubated at 37° C. for 10 min with the evaluated sample (10 μL) and at various concentrations.
Platelet aggregation was initiated by the addition of 25 μL of the platelet agonist. The final concentrations of agonists in the reaction mixture were 20 μM ADP, 500 μM arachidonic acid or 5 μg mL^−1 collagen, all obtained from Chrono-PAR. Corporation (Havertown, Pa., USA). Aggregation response was recorded for 10 min using a Chrono-log Model 700 Whole Blood/Optical Lumi-Aggregometer (Chrono-Log, Havertown, Pa., USA). Maximal aggregation (MA) observed for samples containing avocado extracts, at different degrees of purification, was compared to those of vehicle controls (DMSO 2 M) evaluated under the same experimental conditions. Percent aggregation inhibitions, for all samples, were calculated using the following equation: % Inhibition=(MA vehicle control−MA extract)/MA vehicle control×100%. […]

Male adult CD1 mice [2] = assay: Blood clotting time test in mice; assay type: in vivo
Protocol: (§1) All in vivo experiments were conducted in accordance with the Mexican National Protection Laws on Animal Protection and the General Health Law Related to Health Research (NOM-062-Z00-1999). All procedures were approved by an ethics committee. Male adult CD1 mice weighing 25-35 g were used (obtained from the Animal Care Unit from Facultad de Medicina, UNAM).
Animals were distributed among groups according to a balanced design based on body weight (3 animals per group in each experiment). Room temperature was kept constant (21-24° C.), and with light-dark cycles of 12 h. Food and water were given ad libitum. Persenone-A was dissolved in DMSO (vehicle) and administered intraperitoneally (i.p.). Control animals only received the vehicle (1.66 mL kg−1).
In a blood clotting time test groups of animals received a single i.p. administration of Persenone A (1, 10 or 100 mg kg^−1 of body weight, respectively) or vehicle. Blood clotting time was measured 24 h after administration, as described in R. Jaimez, A. Cooney, K. Jackson, A. E. Lemus, C. […] Time was counted from the instant that blood first made contact with the glass capillary tube and until the blood ceased to flow. […]
The data shown in FIG. 4 is representative of at least three independent experiments. Results were expressed as means±SEM. […]

Male adult CD1 mice [3] = assay: Experimental thrombosis model test (surgical stasis of femoral vasculature); assay type: in vivo; conditions: 25 mg kg−1 single i.p.; thrombosis induced after 24 h
Description: Antithrombic activity may be assessed using one or more in vivo (e.g., experimental thrombosis model) assays. For example, after thrombus induction, femoral segments may be removed, fixed, and stained. These segments may be then scored by a pathologist in a double blind manner. Quantitative measurement may be obtained by computerized plannimetry, reaching a quantitative morphological description of structures at the two-dimensional level. Image analysis may be performed using ImageJ software. Minimal occlusion (0.2%) may be observed in controls arteries and test specimens may display thrombus occlusion 40% of the vascular light.
as §1, with “UNAM). […]” for “UNAM).”
Additionally, an experimental thrombosis model test was performed by subjecting mice to an acute ischemic challenge. […] 4 μm thick sections were stained with Masson's trichrome and hematoxylin-eosin, and scored by a pathologist for the percentage of thrombus induction based on the occlusion of vascular light.

[4] = Homo sapiens, Platelet, ADP 20 μM, read-out: Half-maximal inhibition concentration (IC50), ADP-induced platelet aggregation
[5] = Homo sapiens, Platelet, Arachidonic acid 500 μM, read-out: Half-maximal inhibition concentration (IC50), arachidonic acid-induced platelet aggregation
[6] = Homo sapiens, Platelet, Collagen 5 μg mL−1, read-out: Half-maximal inhibition concentration (IC50), collagen-induced platelet aggregation

IC50 [1, 4] | IC50 [1, 5] | IC50 [1, 6] | EC50 of blood clotting time (Male adult CD1 mice [2]; single i.p., 24 h after administration) | IC50 ([1]; Collagen 5 μg mL−1, read-out: Half-maximal inhibition concentration (IC50), collagen-induced platelet aggregation) | IC50 ([1]; Homo sapiens, Platelet, arachidonic acid-induced, read-out: IC50, arachidonic acid-induced platelet aggregation (as printed in text)) | IC50 for arachidonic acid-induced aggregation, fold lower than for ADP-induced aggregation ([1]; arachidonic acid vs ADP) | SMILES | inhibitory concentration, fold higher than Persenone-C ([1]; all three agonists (collagen, ADP, arachidonic acid)) | inhibition of collagen-induced aggregation (in words) ([1]; collagen-induced) | inhibition at 15000 µM ([1]; Homo sapiens, Platelet, 15 mM, arachidonic acid, read-out: inhibition of arachidonic acid-induced platelet aggregation at the highest concentration) | increase in blood clotting time (Male adult CD1 mice [2]; 100 mg kg−1 single i.p., measured 24 h after administration, relative to vehicle) | decrease in luminal occlusion compared to the stasis group (Male adult CD1 mice [3]) | inhibition of platelet aggregation (in words) ([1]; any of the evaluated concentrations (0.15-15 mM))
> 15 mM | > 15 mM | 12 ± 1.24 mM |  |  |  |  | C=C/C=C/CCCCCCCCCCCC(=O)CC(O)COC(C)=O (stereo not shown) [Acetogenin 2, Persediene] |  | inhibited collagen-induced aggregation |  |  |  | 
13.5 ± 1.41 mM | > 15 mM | 8.73 ± 1.25 mM | 24.8±1.7 mg kg^−1 of body weight |  |  |  | CCCCC/C=C\C/C=C\CCCCC/C=C/C(=O)CC(O)COC(C)=O (stereo not shown) [Acetogenin 4, Persenone-A] |  |  | < 50% | 2 fold | 71% | 
5.22 ± 1.19 mM | 7.4 ± 1.2 mM | 3.42 ± 1.56 mM |  | 5.23 ± 1.19 mM |  |  | CC/C=C/CCCCCCCCC/C=C/C(=O)CC(O)COC(C)=O (stereo not shown) [Acetogenin 3, Persenone-C] |  |  |  |  |  | 
> 15 mM | > 15 mM | > 15 mM |  |  |  |  | CCCCC/C=C\C/C=C\CCCCCCCC(=O)CC(O)COC(C)=O (stereo not shown) [Acetogenin 6, Persin] |  |  |  |  |  | did not inhibit platelet aggregation
3.65 ± 0.07 mM | 0.07 ± 0.01 mM | 0.38 ± 0.07 mM |  |  | 0.07 ± 0.01 mM | 50 fold | CC(=O)Oc1ccccc1C(=O)O [Aspirin, acetylysalicylic acid, reference compound] |  |  |  |  |  | 

SMILES | IC50 [1, 4] | IC50 [1, 5] | IC50 [1, 6] | EC50 of blood clotting time (Male adult CD1 mice [2]; single i.p., 24 h after administration) | IC50 ([1]; Collagen 5 μg mL−1, read-out: Half-maximal inhibition concentration (IC50), collagen-induced platelet aggregation) | IC50 ([1]; Homo sapiens, Platelet, arachidonic acid-induced, read-out: IC50, arachidonic acid-induced platelet aggregation (as printed in text)) | IC50 for arachidonic acid-induced aggregation, fold lower than for ADP-induced aggregation ([1]; arachidonic acid vs ADP) | inhibitory concentration, fold higher than Persenone-C ([1]; all three agonists (collagen, ADP, arachidonic acid)) | inhibition of collagen-induced aggregation (in words) ([1]; collagen-induced) | inhibition at 15000 µM ([1]; Homo sapiens, Platelet, 15 mM, arachidonic acid, read-out: inhibition of arachidonic acid-induced platelet aggregation at the highest concentration) | increase in blood clotting time (Male adult CD1 mice [2]; 100 mg kg−1 single i.p., measured 24 h after administration, relative to vehicle) | decrease in luminal occlusion compared to the stasis group (Male adult CD1 mice [3]) | inhibition of platelet aggregation (in words) ([1]; any of the evaluated concentrations (0.15-15 mM))
C=CCCCCCCCCCCC[C@H](O)C[C@H](O)COC(C)=O [Acetogenin 1, (2S,4S)-1-acetoxy-2,4-dihydroxy-n-heptadeca-16-ene] | 7.29 ± 1.21 mM | 13.4 ± 1.26 mM | 8.18 mM |  |  |  |  | > 1.5 fold |  |  |  |  | 
